Test results published in ChEMBL document CHEMBL3879892, “Small molecule inhibition of PDZ-domain interaction” (2011).
Values belong to the compound of their own block, whether it stands above or below them. Active and inactive are the calls of the source. No cut-off for these calls is given here.

Tests used:
[1] = test system: NCI-H460; assay: Inhibition of Dvl PDZ domain interaction with Fz protein in human NCI-H460 cells assessed as induction of apoptosis at 10 uM after 3 days by annexin V-FITC staining-based flow cytometry (reference value: 7.59 to 10.24%); type: cell-based; design: scale not given: the % may be the effect or the level left
[2] = test system: LOX; assay: Inhibition of Dvl PDZ domain interaction with Fz protein in human LOX cells assessed as induction of apoptosis at 10 uM after 3 days by annexin V-FITC staining-based flow cytometry (reference value: 8.81 to 10.85%); type: cell-based; design: scale not given: the % may be the effect or the level left
[3] = biological target: T1, Membrane-associated guanylate kinase, WW and PDZ domain-containing protein 3 (Homo sapiens) (UniProt Q5TCQ9); assay: Inhibition of fluorescein labeled PFDEDQHTQITWV-COOH interaction with GST-fused MAGI-3 second PDZ domain (unknown origin) expressed in Escherichia coli BL21 (DE3) by fluorescence polarization assay
T1 sequence (whole entry): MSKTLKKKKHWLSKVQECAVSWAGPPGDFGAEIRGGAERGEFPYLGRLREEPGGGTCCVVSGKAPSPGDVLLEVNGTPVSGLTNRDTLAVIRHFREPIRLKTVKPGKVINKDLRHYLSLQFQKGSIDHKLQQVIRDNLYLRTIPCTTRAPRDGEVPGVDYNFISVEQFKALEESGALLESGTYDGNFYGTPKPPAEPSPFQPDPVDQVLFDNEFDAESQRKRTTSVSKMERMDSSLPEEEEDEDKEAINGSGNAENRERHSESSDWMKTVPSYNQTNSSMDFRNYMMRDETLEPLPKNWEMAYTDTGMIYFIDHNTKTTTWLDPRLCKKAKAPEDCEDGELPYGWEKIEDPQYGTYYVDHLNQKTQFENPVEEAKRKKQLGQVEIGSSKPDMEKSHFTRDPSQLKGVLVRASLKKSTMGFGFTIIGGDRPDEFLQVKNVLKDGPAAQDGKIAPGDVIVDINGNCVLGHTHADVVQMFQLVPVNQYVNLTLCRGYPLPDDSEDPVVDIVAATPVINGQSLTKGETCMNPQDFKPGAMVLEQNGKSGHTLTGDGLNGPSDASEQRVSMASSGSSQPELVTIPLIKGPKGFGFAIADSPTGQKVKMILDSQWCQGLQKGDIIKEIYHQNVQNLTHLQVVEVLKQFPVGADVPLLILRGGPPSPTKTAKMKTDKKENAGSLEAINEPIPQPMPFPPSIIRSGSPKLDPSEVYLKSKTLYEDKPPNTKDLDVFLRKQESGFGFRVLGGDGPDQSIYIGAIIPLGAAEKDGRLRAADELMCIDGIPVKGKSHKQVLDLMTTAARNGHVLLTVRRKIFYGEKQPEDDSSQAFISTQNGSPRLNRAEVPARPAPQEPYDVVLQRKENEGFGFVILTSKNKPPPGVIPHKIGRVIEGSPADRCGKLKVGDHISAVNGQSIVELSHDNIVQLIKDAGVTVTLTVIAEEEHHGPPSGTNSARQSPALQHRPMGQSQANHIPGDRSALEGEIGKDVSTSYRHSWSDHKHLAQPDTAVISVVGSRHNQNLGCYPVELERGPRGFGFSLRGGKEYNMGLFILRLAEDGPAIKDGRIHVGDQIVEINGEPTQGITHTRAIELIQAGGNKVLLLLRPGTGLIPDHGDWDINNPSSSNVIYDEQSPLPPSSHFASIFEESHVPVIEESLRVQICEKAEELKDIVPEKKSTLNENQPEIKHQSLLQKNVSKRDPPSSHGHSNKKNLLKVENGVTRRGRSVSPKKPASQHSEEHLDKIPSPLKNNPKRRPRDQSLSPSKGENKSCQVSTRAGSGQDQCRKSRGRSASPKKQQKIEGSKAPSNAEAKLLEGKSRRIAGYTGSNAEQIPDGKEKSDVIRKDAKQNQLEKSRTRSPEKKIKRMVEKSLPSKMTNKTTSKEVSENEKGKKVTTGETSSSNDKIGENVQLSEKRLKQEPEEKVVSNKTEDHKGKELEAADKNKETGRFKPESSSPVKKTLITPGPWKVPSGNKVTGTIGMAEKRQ

[4] = Antitumor activity against human NCI-H460 cells xenografted in immune deficient nude mouse assessed as tumor growth inhibition at 50 mg/kg, ip administered for 14 days measured after 2 weeks post last dose relative to control; type: functional; conditions: 336 h, read-out: TGI
[5] = Antitumor activity against human LOX cells xenografted in immune deficient nude mouse assessed as tumor growth inhibition at 50 mg/kg, ip administered for 14 days measured after 2 weeks post last dose relative to control; type: functional; conditions: 336 h, read-out: TGI

SMILES: Cc1cc2[nH]c(C(O)c3ccccc3)c(CCCc3ccccc3)c2cc1C(=O)O (centres undefined)
Activity [1]: 37%
Activity [2]: 65.3%

SMILES: Cc1cc2[nH]c(C(O)CCc3ccccc3)c(CCc3ccccc3)c2cc1C(=O)O (centres undefined)
Activity [1]: 36.7%
Activity [2]: 34.7%

inhibition [3]: Active
SMILES: CCCCC(O)c1[nH]c2cc(C)c(C(=O)O)cc2c1CCc1ccccc1 (centres undefined)
inhibition in vivo at 50 mg/kg [4]: 20 to 34%
Activity [1]: 14.6 to 28.3%
inhibition in vivo at 50 mg/kg [5]: 66 to 82%
Activity [2]: 13.4 to 18.5%
